Reference: ChEMBL document CHEMBL1201862, “PubChem BioAssay data set” (2004)
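Test compounds were applied to cells in 96-well plates for 48 hours at 5 doses. The concentration for 50% growth inhibition is given as GI50.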 Calls of active or inactive are those of the source. No stated cut-off is given here; in the data, active = GI50 up to about 1.1 µM and inactive = higher.

Legend:
Assay in all cases: NCI anticancer screen, dose series, 48 h
HL-60 = system: HL-60
NCI-H522 = system: NCI-H522
UACC-257 = system: UACC-257
M14 = system: M14
T47D = system: T47D
MDA-N = system: MDA-N
UO-31 = system: UO-31
Malme-3M = system: Malme-3M
MDA-MB-231 = system: MDA-MB-231
SK-MEL-5 = system: SK-MEL-5
U-251 = system: U-251
MCF7 = system: MCF7
SF-539 = system: SF-539
PC-3 = system: PC-3
DU-145 = system: DU-145
SF-268 = system: SF-268
NCI/ADR-RES = system: NCI/ADR-RES
SK-OV-3 = system: SK-OV-3
OVCAR-4 = system: OVCAR-4
HCT-116 = system: HCT-116

SMILES	GI50 (HL-60)	GI50 (NCI-H522)	GI50 (UACC-257)	GI50 (M14)	GI50 (T47D)	GI50 (MDA-N)	GI50 (UO-31)	GI50 (Malme-3M)	GI50 (MDA-MB-231)	GI50 (SK-MEL-5)	GI50 (U-251)	GI50 (MCF7)	GI50 (SF-539)	GI50 (PC-3)	GI50 (DU-145)	GI50 (SF-268)	GI50 (NCI/ADR-RES)	GI50 (SK-OV-3)	GI50 (OVCAR-4)	GI50 (HCT-116)
COc1ccc(CCNC2=CC(=O)c3ncccc3C2=O)cc1OC	2.82 µM (inactive)	2.11 µM (inactive)	1.19 µM (inactive)	1.15 µM (inactive)	5.09 µM (inactive)	1.18 µM (inactive)	0.931 µM (active)	0.682 µM (active)	0.789 µM (active)	0.184 µM (active)	0.863 µM (active)	1.38 µM (inactive)	2.07 µM (inactive)	2.54 µM (inactive)	1.67 µM (inactive)	5.18 µM (inactive)	2.28 µM (inactive)	10.2 µM (inactive)	2.47 µM (inactive)	2.51 µM (inactive)
COc1ccc(Nc2nc(N)c(C(=O)c3ccco3)s2)cc1	5.04 µM (inactive)	7.71 µM (inactive)	41.7 µM (inactive)	65.2 µM (inactive)	> 60.5 µM (inactive)	4.11 µM (inactive)	29.3 µM (inactive)	> 90.2 µM (inactive)	> 88.1 µM (inactive)	14.5 µM (inactive)	40.4 µM (inactive)	6.81 µM (inactive)	16.6 µM (inactive)	53.6 µM (inactive)	38.4 µM (inactive)	39.3 µM (inactive)	26.1 µM (inactive)	35 µM (inactive)	> 48.1 µM (inactive)	9.23 µM (inactive)
